Results from publication PMC4201354 (The Journal of Organic Chemistry, 2014).

Assays:
yeast α-glucosidase = details: against yeast α-glucosidase; cited from earlier work
Mtb GlgE = biological target: T1, Mtb GlgE (Mycobacterium tuberculosis, UniProt P9WQ17); test: GlgE-coupled enzyme assay utilizing PNP; type: biochemical
T1 sequence (P9WQ17 1-701): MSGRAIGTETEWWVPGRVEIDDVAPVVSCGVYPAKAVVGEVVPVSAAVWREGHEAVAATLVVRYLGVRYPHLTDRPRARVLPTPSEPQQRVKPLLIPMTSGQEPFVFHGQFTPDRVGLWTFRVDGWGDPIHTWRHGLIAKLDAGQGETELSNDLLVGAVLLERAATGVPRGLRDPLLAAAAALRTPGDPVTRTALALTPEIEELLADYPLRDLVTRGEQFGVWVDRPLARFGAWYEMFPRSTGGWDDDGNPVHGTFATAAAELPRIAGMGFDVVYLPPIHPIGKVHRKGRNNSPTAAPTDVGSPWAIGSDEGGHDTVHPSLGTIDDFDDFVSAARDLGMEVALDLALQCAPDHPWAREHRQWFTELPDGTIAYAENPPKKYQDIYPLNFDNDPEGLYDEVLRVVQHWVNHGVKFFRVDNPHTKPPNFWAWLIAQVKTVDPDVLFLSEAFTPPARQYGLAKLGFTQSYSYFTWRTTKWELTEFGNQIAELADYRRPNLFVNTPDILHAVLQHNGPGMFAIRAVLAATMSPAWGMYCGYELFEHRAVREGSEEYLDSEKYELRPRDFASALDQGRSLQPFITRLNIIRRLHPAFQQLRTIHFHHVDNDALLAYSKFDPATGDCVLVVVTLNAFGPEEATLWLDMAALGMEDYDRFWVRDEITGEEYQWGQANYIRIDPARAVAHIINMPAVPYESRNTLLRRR

Molecule | Ki (yeast α-glucosidase) [µM] | Ki (Mtb GlgE) [µM]
5-amino-5-deoxy-D-glucose [Compound 1] | 6.3 | 
OC[C@H]1N[C@H](CO)[C@@H](O[C@H]2O[C@H](CO)[C@@H](O)[C@H](O)[C@H]2O)[C@@H]1O [Compound 9, 2,5-dideoxy-3-O-α-D-glucopyranosyl-2,5-imino-D-mannitol] |  | 237 ± 27
